Among the data in the METLIN SMRT retention time set (Domingo-Almenara et al. 2019) are RP-LC retention time values, retold here.

Structures are written as SMILES.

This data set can be described thus: gradient 5% acetonitrile 3 min, to 50% in 2 min, to 85% in 15 min, held 3 min, 100 µL/min. Conditions: column: Zorbax Extend-C18 2.1 x 50 mm; eluents: water / acetonitrile, 0.1% formic acid. The method, boiled down:
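Retention times come from adduct peaks that were picked computationally and then checked by hand. The standards, pure and pooled in mixtures of ~100 molecules, were run on a Zorbax Extend-C18 column (2.1 × 50 mm, 1.8 μm) at 100 μL/min with water and acetonitrile, each with 0.1% formic acid. Detection was by quadrupole time-of-flight mass spectrometry in positive and negative ionization mode, with a dead volume of 40 μL and a dwell volume of 900 μL.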
On to `COc1ccc(CC(=O)NCC(=O)Nc2nc3ccccc3[nH]2)c(Cl)c1`, for which the RP-LC retention time came out at 653 s.
In the case of `Cc1ccc(NC(=O)Cn2nc(N3CCCC3)c3ccccc3c2=O)c(F)c1` it was 885 s.
Regarding `Cc1ccc(NC(=O)c2cn3c(n2)CCCC3)c(F)c1`, the RP-LC retention time amounted to 720 s.
As to `COc1ccc(-c2noc(-c3cccnc3N3CCN(Cc4ccccc4)CC3)n2)cc1`, the RP-LC retention time amounted to 760 s.
In the case of `COc1ccc(-c2cc3c4nnc(CCC(=O)N5CCCC5)n4ccn3n2)cc1` it was 686 s; in that of `COc1ccc(CCC(=O)Nc2nc(-c3ccc(F)cc3F)cs2)cc1`, 1100 s; in that of `COc1ccc(OCc2ccc(C(=O)Nc3ccc4c(c3)OCO4)o2)cc1`, 879 s.
To `Cc1cc(N2CCOCC2)nc(N2CCN(C(=O)c3cccc(Br)c3)CC2)n1` belongs 636 s; to `CCCCS(=O)(=O)N1CCc2nc(-c3ccccc3)ncc2C1`, 970 s; to `O=C(Nc1cccnc1Cl)C1CCCN(c2ncnc3c2nc2n3CCCCC2)C1` (stereo not given), 717 s.
To `CCNC(=O)C1CC(=O)N(c2cccc(C)c2)C1` (stereo not given) belongs 658 s; to `COc1ccc(NC(=O)NCCc2ccsc2)cc1`, 729 s.
As for `CC1CN(C2CCCCC2)c2nc3c(c(=O)n(CC(=O)O)c(=O)n3C)n2C1` (stereo not given), the RP-LC retention time was determined as 773 s.
Molecule `Cc1ccc(Oc2nccnc2N2CCCC(C(=O)NC(C)c3ccc(C)cc3C)C2)cc1` (stereo not given) came in with an RP-LC retention time of 1160 s.
Turning to `Cc1c(C(=O)Nc2nccs2)nnn1-c1ccc2noc(-c3ccc(Cl)cc3)c2c1`, the RP-LC retention time was 1020 s.
Consider `Cc1ccc2nc(-c3ccc(O)cc3)c(Nc3ccccc3C)n2c1`, for which the RP-LC retention time turned out to be 678 s.
`CCc1ccc(-c2noc(CSc3nc4cc5c(cc4c(=O)n3CC3CCCO3)OCO5)n2)cc1` (stereo not given) had an RP-LC retention time of 1280 s.
The molecule `CCCn1cc(C(=O)NCCN2CCOCC2)c2cccnc21` gave an RP-LC retention time of 586 s.
To `CCC(C)NC(=O)CCC(=O)N1CCc2c(c(C(=O)N3CCCC3)nn2C)C1` (stereo not given) belongs 617 s.
In turn, `CNC(=O)c1noc([C@@H]2CC(F)(F)CN2Cc2ccco2)n1` gave an RP-LC retention time of 732 s.
On to `CCc1cccc(NC(=O)N2CCC(CC(=O)N3CCCCC3)CC2)c1`, for which the RP-LC retention time amounted to 751 s.
The molecule `O=C(N[C@H]1C[C@@H]2C[C@H]1CN2C(=O)c1ccc(OC(F)(F)F)cc1)c1ccccc1` yielded an RP-LC retention time of 786 s.
Take `CCCCNC(=O)CC1CCN(C(=O)c2[nH]c(C)cc2C)CC1`: the RP-LC retention time stood at 719 s.
`Cn1c(=O)n(CC(=O)N2CCCCCC2)c(=O)c2cnc(-c3ccccc3)nc21` registered an RP-LC retention time of 987 s.
To `O=C(c1ccc2nsnc2c1)N(Cc1ccsc1)C1CC1` belongs 861 s.
To `Cc1ccc2c(c1)N(Cc1nc(-c3ccc(Cl)cc3)no1)C(=O)CO2` belongs 1130 s; to `COc1ccc(-c2nnc(Cc3nc(-c4cccs4)no3)o2)cc1`, 913 s; to `Cc1csc(NC(=O)C2CCN(S(=O)(=O)c3cc(-c4noc(C)n4)ccc3Cl)CC2)n1`, 899 s.
In the case of `Cc1nc2c(sc3nc(-c4ccccc4)ccc32)c(=O)n1CC(=O)NCc1ccc(Cl)cc1` it was 1210 s; in that of `Cn1c(-c2cccc(C(=O)NC3CCCCCC3)c2)nc2cccnc21`, 780 s; in that of `CN(CCc1noc(COc2ccccc2F)n1)C(=O)c1ccccc1F`, 889 s.
Regarding `O=C(NCc1cccnc1)C1CCN(c2ncnc3c2oc2ccccc23)CC1`, the RP-LC retention time is 583 s.
In the case of `COCCN(C)C(=O)c1cn(C2CN(S(=O)(=O)c3c(C)noc3C)C2)nn1` it was 703 s; in that of `COCCCNC(=O)c1nc(Nc2ccc(F)cc2)c2ccccc2n1`, 696 s.
To `CCc1onc(C)c1C1CCCN1C(=O)c1c(Br)cnn1C` (stereo not given) belongs 728 s; to `COc1ccc(C2C(C(C)=O)=C(O)C(=O)N2CCCN2CCOCC2)c(OC)c1` (stereo not given), 554 s.
To `CCn1c(=O)c(N2CCN(C(=O)Nc3cccc(SC)c3)CC2)nc2ccccc21` belongs 928 s; to `COC[C@@H]1CN(Cc2cn[nH]c2-c2ccccc2)C[C@H]1c1ccccn1`, 604 s.
With `CN(C)C(=O)c1ccc2oc(CN3CCN(C(=O)NC(C)(C)C)CC3)nc2c1`, the RP-LC retention time came to 597 s.
`COc1ccc(-c2nc3cccnc3n2C2CCN(C(=O)NC(C)C)C2)cc1` (stereo not given) came in with an RP-LC retention time of 667 s.
The molecule `COc1ccc(-c2cn3ccn(-c4ccc(F)cc4)c(=O)c3n2)cc1` displayed an RP-LC retention time of 776 s.
For `COc1ccccc1CNC(=O)c1cn(C)nc1S(=O)(=O)N1CCSCC1`, the RP-LC retention time was found to be 847 s.
To `CC(C)CNC(=O)c1nn(C)c2c1COc1ccccc1-2` belongs 690 s; to `CCCCn1c(=O)c2ccccc2n(Cc2nc(-c3ccc(F)c(Br)c3)no2)c1=O`, 1320 s.
In the case of `COc1ccc(N2CCN(C(=O)c3cc(S(=O)(=O)N4CCC(C)CC4)cn3C)CC2)cc1` it was 923 s; in that of `CN(C)c1cccc(C(=O)N2CCCC2c2nc(-c3ccc(F)cc3)no2)c1` (stereo not given), 985 s; in that of `CCOC(=O)N1CCN(c2cc(-c3nc(-c4cccc(F)c4)no3)c3ccccc3n2)CC1`, 1420 s.
To `Cc1noc(-c2ccc(OC3CN(C(=O)C4CCOC4)C3)cc2)n1` (stereo not given) belongs 695 s; to `COc1ccccc1CNCc1ccc2c(c1)n(C)c(=O)n2C`, 591 s; to `CC(C)NC(=O)N1CCCC1c1nc(-c2cccc(C(F)(F)F)c2)no1` (stereo not given), 902 s.
Take `Cc1cccc(NC(=O)CSc2nc(=O)n(CCN(C)C)c3c2CCC3)c1`: the RP-LC retention time stood at 570 s.
In the case of `O=C(Nc1ccc(OC2CCNCC2)nc1)C1(c2ccccc2)CC1` it was 646 s.
In the case of `O=C(Cn1nc2c(N3CCCCCC3)nccn2c1=O)Nc1cccc(C(F)(F)F)c1` it was 805 s; in that of `O=C(CN1C(=O)c2ccccc2C1=O)Nc1ccc2c(c1)N(C(=O)c1ccco1)CCC2`, 738 s.
Molecule `O=C(NC1CCCCC1)c1cccc(Nc2c(-c3ccc(F)cc3)nc3cnccn23)c1` gave an RP-LC retention time of 848 s.
In the case of `CCCN1C(=O)C(CC(=O)N2CCOCC2)Sc2ncccc21` (stereo not given) it was 641 s; in that of `CCn1c(=O)c(N2CCC(NC(=O)Nc3cccc(Br)c3)CC2)nc2ccccc21`, 1040 s; in that of `O=C(COc1ccccc1)N1CCC(CNS(=O)(=O)c2cccnc2)CC1`, 658 s.
Molecule `CNC(=O)C1CCCN(c2nc3ncn(CC(=O)NC4CCCCC4)c(=O)c3s2)C1` (stereo not given) gave an RP-LC retention time of 632 s.
To `CCCCn1nc2c(S(=O)(=O)N3CCOCC3)cccn2c1=O` belongs 702 s.
